Key:
Test in all cases: cells
Calu-6 = format: functional, cell-based, Homo sapiens; details: Homo sapiens, Calu-6;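 also: growth of human Calu-6 cells, read out by a cell viability assay, IC50 marking inhibition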
Description: SANGER: Inhibition of human Calu-6 cell growth in a cell viability assay.

DB = format: functional, cell-based, Homo sapiens; details: Homo sapiens, DB
Description: SANGER: Inhibition of human DB cell growth in a cell viability assay.

EM-2 = format: functional, cell-based, Homo sapiens; details: Homo sapiens, EM-2;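 also: growth inhibition of EM-2 cells, read out with a cell viability assay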
Description: SANGER: Inhibition of human EM-2 cell growth in a cell viability assay.

ES7 = format: functional, cell-based, Homo sapiens; details: Homo sapiens, ES7;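 also: growth inhibition of cultured human ES7 cells, read out as cell viability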
Description: SANGER: Inhibition of human ES7 cell growth in a cell viability assay.

GOTO = format: functional, cell-based, Homo sapiens; details: Homo sapiens, GOTO;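 also: growth inhibition of GOTO cells, read out by a cell viability assay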
Description: SANGER: Inhibition of human GOTO cell growth in a cell viability assay.

HCC 2998 = format: functional, cell-based, Homo sapiens; details: Homo sapiens, HCC 2998;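 also: growth inhibition of human HCC2998 cells, measured with a cell viability read-out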
Description: SANGER: Inhibition of human HCC2998 cell growth in a cell viability assay.

HCE-4 = format: functional, cell-based, Homo sapiens; details: Homo sapiens, HCE-4;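 also: cell viability assay measuring inhibition of growth in the human HCE-4 cell line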
Description: SANGER: Inhibition of human HCE-4 cell growth in a cell viability assay.

HDLM-2 = format: functional, cell-based, Homo sapiens; details: Homo sapiens, HDLM-2;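 also: cell viability assay measuring suppression of HDLM-2 proliferation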
Description: SANGER: Inhibition of human HDLM-2 cell growth in a cell viability assay.

IST-SL1 = format: functional, cell-based, Homo sapiens; details: Homo sapiens, IST-SL1;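 also: growth inhibition of human IST-SL1 cells, read out with a cell viability assay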
Description: SANGER: Inhibition of human IST-SL1 cell growth in a cell viability assay.

K562 = format: functional, cell-based, Homo sapiens; details: Homo sapiens, K562
Description: SANGER: Inhibition of human K-562 cell growth in a cell viability assay.

KP-N-YS = format: functional, cell-based, Homo sapiens; details: Homo sapiens, KP-N-YS;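 also: cell viability assay measuring inhibition of cell line growth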
Description: SANGER: Inhibition of human KP-N-YS cell growth in a cell viability assay.

KS-1 = format: functional, cell-based, Homo sapiens; details: Homo sapiens, KS-1;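 also: growth inhibition of KS-1 cells, read out with a cell viability assay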
Description: SANGER: Inhibition of human KS-1 cell growth in a cell viability assay.

KU812 cell line = format: functional, cell-based, Homo sapiens; details: Homo sapiens, KU812;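 also: growth inhibition of KU812 cells, read out with a cell viability assay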
Description: SANGER: Inhibition of human KU812 cell growth in a cell viability assay.

KY821 = format: functional, cell-based, Homo sapiens; details: Homo sapiens, KY821;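 also: growth inhibition of human KY821 cells, read out by a cell viability assay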
Description: SANGER: Inhibition of human KY821 cell growth in a cell viability assay.

L-428 = format: functional, cell-based, Homo sapiens; details: Homo sapiens, L-428
Description: SANGER: Inhibition of human L-428 cell growth in a cell viability assay.

LAN-6 = format: functional, cell-based, Homo sapiens; details: Homo sapiens, LAN-6;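 also: growth inhibition of LAN-6 cells, determined with a cell viability assay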
Description: SANGER: Inhibition of human LAN-6 cell growth in a cell viability assay.

LB2241-RCC = format: functional, cell-based, Homo sapiens; details: Homo sapiens, LB2241-RCC;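 also: cell viability assay measuring how strongly the cultured human renal carcinoma line is prevented from growing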
Description: SANGER: Inhibition of human LB2241-RCC cell growth in a cell viability assay.

LS-513 = format: functional, cell-based, Homo sapiens; details: Homo sapiens, LS-513
Description: SANGER: Inhibition of human LS-513 cell growth in a cell viability assay.

MFH-ino = format: functional, cell-based, Homo sapiens; details: Homo sapiens, MFH-ino;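 also: growth inhibition of human MFH-ino cells, read out by a cell viability assay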
Description: SANGER: Inhibition of human MFH-ino cell growth in a cell viability assay.

ML-2 = format: functional, cell-based, Homo sapiens; details: Homo sapiens, ML-2;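 also: growth inhibition of ML-2 cells, measured with a cell viability readout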
Description: SANGER: Inhibition of human ML-2 cell growth in a cell viability assay.

MPP-89 = format: functional, cell-based, Homo sapiens; details: Homo sapiens, MPP-89;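 also: growth inhibition of human MPP-89 cells, read out with a cell viability assay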
Description: SANGER: Inhibition of human MPP-89 cell growth in a cell viability assay.

MV4-11 = format: functional, cell-based, Homo sapiens, MV-4-11; details: Homo sapiens, MV4-11;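 also: cell viability readout measuring growth inhibition of human MV-4-11 cells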
Description: SANGER: Inhibition of human MV-4-11 cell growth in a cell viability assay.

MZ2-MEL = format: functional, cell-based, Homo sapiens; details: Homo sapiens, MZ2-MEL;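 also: growth inhibition of MZ2-MEL cells read out with a cell viability assay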
Description: SANGER: Inhibition of human MZ2-MEL cell growth in a cell viability assay.

MZ7-mel = format: functional, cell-based, Homo sapiens; details: Homo sapiens, MZ7-mel;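 also: growth inhibition of human MZ7-mel cells, measured by a cell viability assay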
Description: SANGER: Inhibition of human MZ7-mel cell growth in a cell viability assay.

Mo = format: functional, cell-based, Homo sapiens; details: Homo sapiens, Mo
Description: SANGER: Inhibition of human Mo-T cell growth in a cell viability assay.

NB69 = format: functional, cell-based, Homo sapiens; details: Homo sapiens, NB69;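 also: growth inhibition of NB69 cells, determined by a cell viability assay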
Description: SANGER: Inhibition of human NB69 cell growth in a cell viability assay.

NCI-H1304 = format: functional, cell-based, Homo sapiens; details: Homo sapiens, NCI-H1304;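 also: growth inhibition of the cancer cell line, measured in a cell viability assay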
Description: SANGER: Inhibition of human NCI-H1304 cell growth in a cell viability assay.

NCI-H1395 = format: functional, cell-based, Homo sapiens; details: Homo sapiens, NCI-H1395;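 also: cell viability assay read-out quantifying reduced proliferation of human NCI-H1395 cells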
Description: SANGER: Inhibition of human NCI-H1395 cell growth in a cell viability assay.

NCI-H1838 = format: functional, cell-based, Homo sapiens; details: Homo sapiens, NCI-H1838;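 also: growth inhibition of NCI-H1838 cells, determined with a cell viability readout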
Description: SANGER: Inhibition of human NCI-H1838 cell growth in a cell viability assay.

NCI-H2126 = format: functional, cell-based, Homo sapiens; details: Homo sapiens, NCI-H2126;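 also: growth inhibition of the cancer cell line, determined with a cell viability readout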
Description: SANGER: Inhibition of human NCI-H2126 cell growth in a cell viability assay.

NCI-H720 = format: functional, cell-based, Homo sapiens; details: Homo sapiens, NCI-H720;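 also: growth inhibition of human NCI-H720 cells determined by a cell viability assay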
Description: SANGER: Inhibition of human NCI-H720 cell growth in a cell viability assay.

SNU1 = format: functional, cell-based, Homo sapiens; details: Homo sapiens, SNU1;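 also: growth inhibition of human NCI-SNU-1 cells, measured with a cell viability assay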
Description: SANGER: Inhibition of human NCI-SNU-1 cell growth in a cell viability assay.

NOS-1 = format: functional, cell-based, Homo sapiens; details: Homo sapiens, NOS-1;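 also: growth inhibition of the human NOS-1 cell line, read out with a cell viability assay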
Description: SANGER: Inhibition of human NOS-1 cell growth in a cell viability assay.

NTERA-2-cl-D1 = format: functional, cell-based, Homo sapiens; details: Homo sapiens, NTERA-2-cl-D1;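 also: inhibition of cell growth, measured with a cell viability assay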
Description: SANGER: Inhibition of human NTERA-S-cl-D1 cell growth in a cell viability assay.

OCUB-M = format: functional, cell-based, Homo sapiens; details: Homo sapiens, OCUB-M;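 also: growth inhibition of the cancer cell line, read out through a cell viability assay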
Description: SANGER: Inhibition of human OCUB-M cell growth in a cell viability assay.

ONS-76 = format: functional, cell-based, Homo sapiens; details: Homo sapiens, ONS-76;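 also: growth inhibition of human ONS-76 cells, read out with a cell viability assay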
Description: SANGER: Inhibition of human ONS-76 cell growth in a cell viability assay.

P30-OHK = format: functional, cell-based, Homo sapiens; details: Homo sapiens, P30-OHK;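 also: growth inhibition of the P30-OHK cell line, read out with a cell viability assay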
Description: SANGER: Inhibition of human P30-OHK cell growth in a cell viability assay.

SF-126 = format: functional, cell-based, Homo sapiens; details: Homo sapiens, SF-126;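 also: growth inhibition of human SF126 cells, read out with a cell viability assay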
Description: SANGER: Inhibition of human SF126 cell growth in a cell viability assay.

SF-539 = format: functional, cell-based, Homo sapiens; details: Homo sapiens, SF-539;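 also: Read-out is a cell viability assay, with IC50 reflecting inhibition of cell growth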
Description: SANGER: Inhibition of human SF539 cell growth in a cell viability assay.

SW872 = format: functional, cell-based, Homo sapiens; details: Homo sapiens, SW872;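 also: growth inhibition of SW872 cells, read out by a viability assay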
Description: SANGER: Inhibition of human SW872 cell growth in a cell viability assay.

697 = format: functional, cell-based, Homo sapiens; details: Homo sapiens
Description: SANGER: Inhibition of human 697 cell growth in a cell viability assay.

8-MG-BA = format: functional, cell-based, Homo sapiens; details: Homo sapiens, 8-MG-BA;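 also: growth inhibition of 8-MG-BA cells, read out with a cell viability assay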
Description: SANGER: Inhibition of human 8-MG-BA cell growth in a cell viability assay.

A253 cell line = format: functional, cell-based, Homo sapiens; details: Homo sapiens, A253;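 also: growth inhibition of A253 cells, read out with a cell viability assay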
Description: SANGER: Inhibition of human A253 cell growth in a cell viability assay.

A3-KAW = format: functional, cell-based, Homo sapiens; details: Homo sapiens, A3-KAW;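 also: growth inhibition of human A3-KAW cells, read out with a cell viability assay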
Description: SANGER: Inhibition of human A3-KAW cell growth in a cell viability assay.

BB49-HNC = format: functional, cell-based, Homo sapiens; details: Homo sapiens, BB49-HNC;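 also: cell viability assay read-out, reported as inhibition of BB49-HNC cell growth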
Description: SANGER: Inhibition of human BB49-HNC cell growth in a cell viability assay.

TGBC1TKB = format: functional, cell-based, Homo sapiens; details: Homo sapiens, TGBC1TKB;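 also: growth inhibition of TGBC1TKB cells, read out by a cell viability assay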
Description: SANGER: Inhibition of human TGBC1TKB cell growth in a cell viability assay.

CAS-1 = format: functional, cell-based, Homo sapiens; details: Homo sapiens, CAS-1;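 also: growth inhibition of CAS-1 cells, measured with a cell viability assay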
Description: SANGER: Inhibition of human CAS-1 cell growth in a cell viability assay.

CGTH-W-1 = format: functional, cell-based, Homo sapiens; details: Homo sapiens, CGTH-W-1;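 also: growth inhibition of human CGTH-W-1 cells measured by cell viability assay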
Description: SANGER: Inhibition of human CGTH-W-1 cell growth in a cell viability assay.

Compound: Cc1cc([N+](=O)[O-])ccc1NS(=O)(=O)c1cc(Cl)ccc1Cl
- IC50 (Calu-6): 0.831 µM
- IC50 (DB): 8.17 µM
- IC50 (EM-2): 16.3 µM
- IC50 (ES7): 11.1 µM
- IC50 (GOTO): > 32 µM
- IC50 (HCC 2998): 3.15 µM
- IC50 (HCE-4): 5.45 µM
- IC50 (HDLM-2): 6.71 µM
- IC50 (IST-SL1): 24.4 µM
- IC50 (K562): 26.9 µM
- IC50 (KP-N-YS): 15.9 µM
- IC50 (KS-1): 12.6 µM
- IC50 (KU812 cell line): 7.2 µM
- IC50 (KY821): > 32 µM
- IC50 (L-428): > 32 µM
- IC50 (LAN-6): 20.4 µM
- IC50 (LB2241-RCC): 2.61 µM
- IC50 (LS-513): 14.5 µM
- IC50 (MFH-ino): 0.506 µM
- IC50 (ML-2): 7.87 µM
- IC50 (MPP-89): 20.1 µM
- IC50 (MV4-11): 5.23 µM
- IC50 (MZ2-MEL): 1.44 µM
- IC50 (MZ7-mel): 3.39 µM
- IC50 (Mo): > 32 µM
- IC50 (NB69): 31.3 µM
- IC50 (NCI-H1304): > 32 µM
- IC50 (NCI-H1395): > 32 µM
- IC50 (NCI-H1838): > 32 µM
- IC50 (NCI-H2126): 24.8 µM
- IC50 (NCI-H720): > 32 µM
- IC50 (SNU1): 10.8 µM
- IC50 (NOS-1): 2.06 µM
- IC50 (NTERA-2-cl-D1): 1.43 µM
- IC50 (OCUB-M): 0.81 µM
- IC50 (ONS-76): 6.44 µM
- IC50 (P30-OHK): > 32 µM
- IC50 (SF-126): 9.88 µM
- IC50 (SF-539): 21 µM
- IC50 (SW872): 4.95 µM
- IC50 697: > 32 µM
- IC50 (8-MG-BA): 3.7 µM
- IC50 (A253 cell line): 5.93 µM
- IC50 (A3-KAW): 8.78 µM
- IC50 (BB49-HNC): > 32 µM
- IC50 (TGBC1TKB): 8.37 µM
- IC50 (CAS-1): 8.88 µM
- IC50 (CGTH-W-1): 11.9 µM

Compound: Oc1ccc2ccccc2c1SSc1c(O)ccc2ccccc12
- IC50 (Calu-6): > 32 µM
- IC50 (DB): 12.7 µM
- IC50 (EM-2): > 32 µM
- IC50 (ES7): > 32 µM
- IC50 (GOTO): > 32 µM
- IC50 (HCC 2998): > 32 µM
- IC50 (HCE-4): > 32 µM
- IC50 (HDLM-2): > 32 µM
- IC50 (IST-SL1): > 32 µM
- IC50 (K562): > 32 µM
- IC50 (KP-N-YS): > 32 µM
- IC50 (KS-1): 6.89 µM
- IC50 (KU812 cell line): 2.76 µM
- IC50 (KY821): > 32 µM
- IC50 (L-428): > 32 µM
- IC50 (LAN-6): > 32 µM
- IC50 (LB2241-RCC): 28 µM
- IC50 (LS-513): > 32 µM
- IC50 (MFH-ino): > 32 µM
- IC50 (ML-2): 26.4 µM
- IC50 (MPP-89): > 32 µM
- IC50 (MV4-11): 9.16 µM
- IC50 (MZ2-MEL): > 32 µM
- IC50 (MZ7-mel): > 32 µM
- IC50 (Mo): > 32 µM
- IC50 (NB69): 6.76 µM
- IC50 (NCI-H1304): > 32 µM
- IC50 (NCI-H1395): > 32 µM
- IC50 (NCI-H1838): > 32 µM
- IC50 (NCI-H2126): > 32 µM
- IC50 (NCI-H720): > 32 µM
- IC50 (SNU1): > 32 µM
- IC50 (NOS-1): 11.7 µM
- IC50 (NTERA-2-cl-D1): > 32 µM
- IC50 (OCUB-M): > 32 µM
- IC50 (ONS-76): > 32 µM
- IC50 (P30-OHK): 9.87 µM
- IC50 (SF-126): > 32 µM
- IC50 (SF-539): > 32 µM
- IC50 (SW872): 7.84 µM
- IC50 697: > 32 µM
- IC50 (8-MG-BA): > 32 µM
- IC50 (A253 cell line): > 32 µM
- IC50 (A3-KAW): > 32 µM
- IC50 (BB49-HNC): > 32 µM
- IC50 (TGBC1TKB): > 32 µM
- IC50 (CAS-1): > 32 µM
- IC50 (CGTH-W-1): > 32 µM
